In ChEMBL document CHEMBL3616413, “Isolation and structure of vanitaracin A, a novel anti-hepatitis B virus compound from Talaromyces sp” (Bioorg Med Chem Lett, 2015):
pIC50: −log10 of the molar value.

system: not listed separately; assay: Cytotoxicity against human HepG2 cells expressing hNTCP-C4 assessed as cell viability by MTT assay; assay type: cell-based; parameters: concentration or dose not given beside the values; details: read-out: Activity

| Compound | viability |
| --- | --- |
| CCC(=O)Cc1cc(=O)c2c(C)cc(O)cc2o1 | > 90% |
| CCC(=O)CC1(O)CC(=O)c2c(C)cc(O)cc2O1 (stereo not given) | > 90% |
| CCC(C)CC(C)C(=O)OC1(C)C(=O)Cc2cc(O)c3c(c2C1=O)C[C@@H](O)C[C@H]3C (stereo not given in full) | > 90% |
| Cc1cccc(O)c1C(=O)Cc1c(C=O)cc(O)c(C)c1O | > 90% |
| CCC(C)CC(C)C(=O)OC1(C)C(=O)c2c(cc(O)c3c2C[C@@H](O)C[C@H]3C)C(C)(O)C1=O (stereo not given in full) | > 90% |

system: Hepatitis B virus; assay: Antiviral activity against HBV infected in human HepG2 cells expressing hNTCP-C4 assessed as viral envelope surface protein secretion treated for 16 hrs followed by compound washout measured after 12 days by ELISA; assay type: functional, organism-based; details: not given

| Compound | pIC50 |
| --- | --- |
| CCC(=O)Cc1cc(=O)c2c(C)cc(O)cc2o1 | 4.14 |
| CCC(=O)CC1(O)CC(=O)c2c(C)cc(O)cc2O1 (stereo not given) | 4.28 |
| CCC(C)CC(C)C(=O)OC1(C)C(=O)Cc2cc(O)c3c(c2C1=O)C[C@@H](O)C[C@H]3C (stereo not given in full) | 4.04 |
| Cc1cccc(O)c1C(=O)Cc1c(C=O)cc(O)c(C)c1O | 4.29 |
| CCC(C)CC(C)C(=O)OC1(C)C(=O)c2c(cc(O)c3c2C[C@@H](O)C[C@H]3C)C(C)(O)C1=O (stereo not given in full) | 4.98 |
